The target of one assay is T1, Phospho-KIT (Tyr719) (Homo sapiens, UniProt P10721, DEL560-578).
T1 construct: endogenous in cells; host or cells: GIST T1
The experiment in a line: GIST T1 KIT Western Blot. It counts as cell-based. The following applies: GIST T1 cells, 4 hours, serum-free medium; read-out: pKIT suppression by western blot analysi GIST T1. On the procedure: GIST48, GIST430, and GIST882 cells were obtained from J. Fletcher (Brigham and Women's Hospital, Boston, MA). GIST T1 cells were obtained from B. Rubin (Cleveland Clinic, Cleveland, OH) and Professor Takahiro Taguchi (Kochi Medical School, Nankoku, Kochi, Japan). […] GIST430 cells were grown in Ham's F10 medium supplemented with 15% characterized fetal bovine serum (Invitrogen, Carlsbad, CA), 30 mg/L bovine pituitary extract (BD Biosciences, San Jose, CA), 0.5% Mito+ serum extender (BD Biosciences, San Jose, CA), 1 unit/mL penicillin G, 1 µg/ml streptomycin, and 0.29 mg/mL L-glutamine at 37 °C, 5%CO2, 95% humidity. GIST T1 cells were grown in DMEM medium supplemented with 10% characterized fetal bovine serum (Invitrogen, Carlsbad, CA), 1 unit/mL penicillin G, 1 µg/ml streptomycin, and 0.29 mg/mL L-glutamine at 37 °C, 5% CO2, and 95% humidity. Cells were allowed to expand until reaching 70-95% confluence at which point they were subcultured or harvested for assay use.
One hundred twenty-five thousand cells were added per well in a 24-well tissue-culture treated plate. Cells were then incubated overnight at 37°C, 5% CO2, 95% humidity. Medium was aspirated, cells were washed with PBS, and serum-free DMEM medium was added. A serial dilution of test compound was added to plates containing cells and plates were incubated for 4 hours at 37°C, 5% CO2, 95% humidity. Cells were washed with PBS, then lysed. Cell lysates were separated by SDS-PAGE and transferred to PVDF. Phospho-KIT (Tyr719) was detected using an antibody from Cell Signaling Technology (Beverly, MA), ECL Plus detection reagent (GE Healthcare, Piscataway, NJ) and a Molecular Devices Storm 840 phosphorimager in fluorescence mode. Blots were stripped and probed for total KIT using an antibody from Santa Cruz Biotech (Santa Cruz, CA). IC50 values were calculated using Prism software (Graphpad, San Diego, CA).
On the technique in general: A western blot detects proteins with antibodies after separation by electrophoresis.

The target in the next assay is T2, c-KIT VVDV kinase (Homo sapiens, UniProt P10721, D816V/DEL559-560).
T2 construct: This construct contains residues T544-V976 of cKit; GST (N); TEV cleavage site (internal); purchased deCODE Biostructures
T2 sequence (P10721 with tags, fused parts or gaps DEL559-560/D816V): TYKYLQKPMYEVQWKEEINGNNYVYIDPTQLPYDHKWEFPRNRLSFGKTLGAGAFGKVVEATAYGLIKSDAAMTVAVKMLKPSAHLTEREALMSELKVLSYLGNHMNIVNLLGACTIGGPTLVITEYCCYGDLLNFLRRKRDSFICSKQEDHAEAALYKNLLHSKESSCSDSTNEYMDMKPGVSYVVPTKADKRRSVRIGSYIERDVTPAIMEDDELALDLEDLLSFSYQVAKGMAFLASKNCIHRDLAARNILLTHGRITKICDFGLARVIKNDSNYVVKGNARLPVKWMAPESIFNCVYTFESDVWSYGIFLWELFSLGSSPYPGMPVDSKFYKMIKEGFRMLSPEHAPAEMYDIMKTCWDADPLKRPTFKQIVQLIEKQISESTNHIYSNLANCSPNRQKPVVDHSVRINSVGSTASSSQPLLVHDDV
The experiment in a line: cKIT-VVDV kinase Assay. The format is biochemical. The following applies: enzymatic assay; V559+V560 deletions and D816V mutation. In a few lines: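 Coupled spectrophotometric format: kinase activity followed as NADH oxidation, loss of absorbance at 340 nm. Serially diluted compound mixed with the reaction mixture to start; read continuously for 5 h at 30 °C.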

For a further assay, the target named is T3, c-KIT D816H kinase (Homo sapiens, UniProt P10721, D816H).
T3 construct: The construct contains residues T544-V976 of cKit; GST (N); TEV cleavage site (internal); purchased deCODE Biostructures
T3 sequence (P10721 544-976 D816H): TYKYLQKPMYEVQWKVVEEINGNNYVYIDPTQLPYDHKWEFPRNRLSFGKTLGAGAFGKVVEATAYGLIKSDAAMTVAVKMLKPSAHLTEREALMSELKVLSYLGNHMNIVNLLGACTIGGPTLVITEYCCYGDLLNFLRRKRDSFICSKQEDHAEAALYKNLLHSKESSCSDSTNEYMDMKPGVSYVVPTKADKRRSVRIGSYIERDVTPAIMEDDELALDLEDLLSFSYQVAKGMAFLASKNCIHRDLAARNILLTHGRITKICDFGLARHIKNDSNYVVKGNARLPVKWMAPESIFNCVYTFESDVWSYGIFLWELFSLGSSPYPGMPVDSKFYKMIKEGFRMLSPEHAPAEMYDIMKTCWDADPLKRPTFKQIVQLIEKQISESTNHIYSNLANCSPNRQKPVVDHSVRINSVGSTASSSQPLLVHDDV
The experiment in a line: c-KIT D816H Kinase Assay. The format is biochemical. The following applies: enzymatic assay, ATP 200 µM. The essentials:
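Coupled spectrophotometric assay following NADH oxidation as absorbance decrease at 340 nm, monitored continuously for 6 hours at 30 °C after adding serially diluted compound. Enzyme: mutant cKit construct with N-terminal tag, GST fusion and TEV cleavage site.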

The subject of a further assay is GIST T1 cells. The assay can be described thus: GIST T1 Cell Proliferation Assay. It counts as cell-based. The following applies: Homo sapiens, GISTT1, 72 h, 68 hours + 4 hours resazurin. In general terms: Alamar Blue is a resazurin reagent that responds to reducing activity.
The next assay concerns the target T4, c-KIT V654A kinase (Homo sapiens, UniProt P10721, V654A).
T4 construct: residues T544-V976 with N-terminal GST fusion; purchased deCODE Biostructures
The experiment in a line: c-KIT V654A Kinase Assay. It counts as biochemical. The following applies: enzymatic assay, ATP 200 µM. In a few lines: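 Construct: cKIT residues T544–V976 with N-terminal tag, GST fusion and TEV site. Reaction started by adding serially diluted compound to the enzyme mixture; NADH oxidation, coupled to kinase turnover, followed as the decrease in A340 for 6 h at 30 °C.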

The values below come from patent EP3722296B1, “DIHYDRONAPHTHYRIDINES AND RELATED COMPOUNDS USEFUL AS KINASE INHIBITORS FOR THE TREATMENT OF PROLIFERATIVE DISEASES” (Deciphera Pharmaceuticals, LLC, priority 2012, dated 2013).

Bounds are passed on as bounds.

T4 sequence (P10721 544-976 V654A): as the sequence (P10721 544-976 D816H) above, with V111A, H273D counted along it
T1 sequence (P10721 with tags, fused parts or gaps DEL560-578): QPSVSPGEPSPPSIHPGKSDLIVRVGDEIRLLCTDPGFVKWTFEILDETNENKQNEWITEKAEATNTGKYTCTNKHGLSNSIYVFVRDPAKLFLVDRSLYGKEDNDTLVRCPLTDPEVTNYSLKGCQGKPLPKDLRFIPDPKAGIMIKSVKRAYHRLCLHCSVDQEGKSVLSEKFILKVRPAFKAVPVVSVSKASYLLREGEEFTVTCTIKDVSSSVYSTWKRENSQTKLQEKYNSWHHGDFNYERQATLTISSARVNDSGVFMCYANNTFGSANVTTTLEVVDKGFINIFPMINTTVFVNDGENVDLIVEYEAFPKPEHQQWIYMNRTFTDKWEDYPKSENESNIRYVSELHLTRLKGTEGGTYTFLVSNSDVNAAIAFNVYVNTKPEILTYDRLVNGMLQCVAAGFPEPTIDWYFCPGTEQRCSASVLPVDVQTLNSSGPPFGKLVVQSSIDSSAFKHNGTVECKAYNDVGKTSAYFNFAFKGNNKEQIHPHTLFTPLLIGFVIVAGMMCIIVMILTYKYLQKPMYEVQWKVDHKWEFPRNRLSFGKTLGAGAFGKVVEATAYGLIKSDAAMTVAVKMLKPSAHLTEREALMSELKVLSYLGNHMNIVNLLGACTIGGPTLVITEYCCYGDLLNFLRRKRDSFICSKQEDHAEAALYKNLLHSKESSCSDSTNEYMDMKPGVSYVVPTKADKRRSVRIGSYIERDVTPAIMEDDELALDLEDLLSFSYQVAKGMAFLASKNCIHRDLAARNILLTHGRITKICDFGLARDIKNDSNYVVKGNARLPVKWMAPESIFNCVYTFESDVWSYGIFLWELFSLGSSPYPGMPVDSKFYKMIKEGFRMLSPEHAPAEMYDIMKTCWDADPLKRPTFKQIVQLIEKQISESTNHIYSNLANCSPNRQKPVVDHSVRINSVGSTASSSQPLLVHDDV

As to `CCn1c(=O)c(-c2cc(NC(=O)Nc3cccc(F)c3)c(F)cc2Br)cc2cnc(NC)cc21` [Example 50, 1-(4-bromo-5-(1-ethyl-7-(methylamino)-2-oxo-1,2-dihydro-1,6-naphthyridin-3-yl)-2-fluorophenyl)-3-(3-fluorophenyl)urea], the IC50 is < 10 nM on Phospho-KIT (Tyr719); 100 to 1000 nM at c-KIT VVDV kinase; 10 to 100 nM on c-KIT D816H kinase; 10 to 100 nM in the assay with GIST T1 cells; 10 to 100 nM on c-KIT V654A kinase.
For `CCn1c(=O)c(-c2cc(NC(=O)Nc3ccccc3)c(F)cc2Cl)cc2cnc(NC(C)=O)cc21` [Example 54, 1-(5-(7-acetamido-1-ethyl-2-oxo-1,2-dihydro-1,6-naphthyridin-3-yl)-4-chloro-2-fluorophenyl)-3-phenylurea], the IC50 was < 10 nM at Phospho-KIT (Tyr719); < 10 nM on c-KIT VVDV kinase; < 10 nM on c-KIT D816H kinase; < 10 nM in the assay on GIST T1 cells; 10 to 100 nM at c-KIT V654A kinase.
For the molecule `CCn1c(=O)c(-c2cc(NC(=O)Nc3csc4ccccc34)c(F)cc2C)cc2cnc(NC)cc21` [Example 59, 1-(benzo[b]thiophen-3-yl)-3-(5-(1-ethyl-7-(methylamino)-2-oxo-1,2-dihydro-1,6-naphthyridin-3-yl)-2-fluoro-4-methylphenyl)urea], the IC50 was < 10 nM at Phospho-KIT (Tyr719); 10 to 100 nM on c-KIT VVDV kinase; 10 to 100 nM at c-KIT D816H kinase; 10 to 100 nM in the assay with GIST T1 cells; 10 to 100 nM on c-KIT V654A kinase.
For the molecule `CCn1c(=O)c(-c2cc(NC(=O)Nc3ccccc3)c(F)cc2Cl)cc2cnc(NC(=O)N(C)C)cc21` [Example 70, 3-(3-(2-chloro-4-fluoro-5-(3-phenylureido)phenyl)-1-ethyl-2-oxo-1,2-dihydro-1,6-naphthyridin-7-yl)-1,1-dimethylurea], the IC50 at Phospho-KIT (Tyr719) was < 10 nM; on c-KIT VVDV kinase, < 10 nM; at c-KIT D816H kinase, 10 to 100 nM; in the assay on GIST T1 cells, < 10 nM; at c-KIT V654A kinase, 10 to 100 nM.
